Source: ChEMBL document CHEMBL1201862, “PubChem BioAssay data set” (2004)
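Assay format: 96-well plates, 48-hour exposure. At the GI50, growth is halved.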 The source made the active and inactive calls. Cut-off read from the data, not from the text of the source: active = GI50 up to about 1.1 µM and inactive = higher.

Key:
Assay in all cases: inhibition of tumour cell growth, NCI panel, 48 h
MCF7 = system: MCF7
SK-MEL-5 = system: SK-MEL-5
K562 = system: K562
SF-268 = system: SF-268
BT-549 = system: BT-549
HCT-116 = system: HCT-116
MDA-MB-435 = system: MDA-MB-435
M14 = system: M14
HOP-92 = system: HOP-92
HCC 2998 = system: HCC 2998
UACC-257 = system: UACC-257
NCI-H226 = system: NCI-H226
U-251 = system: U-251
786-0 = system: 786-0
SN12C = system: SN12C
A498 = system: A498
MDA-N = system: MDA-N
SR = system: SR
TK-10 = system: TK-10
CCRF-CEM = system: CCRF-CEM

Row | SMILES | GI50 (MCF7) | GI50 (SK-MEL-5) | GI50 (K562) | GI50 (SF-268) | GI50 (BT-549) | GI50 (HCT-116) | GI50 (MDA-MB-435) | GI50 (M14) | GI50 (HOP-92) | GI50 (HCC 2998) | GI50 (UACC-257) | GI50 (NCI-H226) | GI50 (U-251) | GI50 (786-0) | GI50 (SN12C) | GI50 (A498) | GI50 (MDA-N) | GI50 (SR) | GI50 (TK-10) | GI50 (CCRF-CEM)
1 | O=C(OCc1ccccc1CN1CCOCC1)c1cccc(Br)c1 | 37 µM (inactive) | 17.7 µM (inactive) | 6.3 µM (inactive) | 62.8 µM (inactive) | 52.6 µM (inactive) | 32.9 µM (inactive) | > 100 µM (inactive) | 36.9 µM (inactive) | 43.6 µM (inactive) | 28.3 µM (inactive) | 24.6 µM (inactive) | 44.8 µM (inactive) | 47.6 µM (inactive) | 74.8 µM (inactive) | 39.3 µM (inactive) | > 100 µM (inactive) | – | – | – | –
2 | CN1CCN(CCn2c3c4ccccc4ccc3c3oc(=O)c4ccccc4c32)CC1 | 1.55 µM (inactive) | 1.78 µM (inactive) | 1.44 µM (inactive) | 6 µM (inactive) | – | 1.88 µM (inactive) | 1.88 µM (inactive) | 1.68 µM (inactive) | 5.85 µM (inactive) | 1.87 µM (inactive) | 1.56 µM (inactive) | 16.6 µM (inactive) | 2.49 µM (inactive) | 1.73 µM (inactive) | 1.51 µM (inactive) | 5.09 µM (inactive) | 1.56 µM (inactive) | 1.5 µM (inactive) | 10.5 µM (inactive) | 1.56 µM (inactive)
3 | CCn1c2ccccc2c2cc(Nc3cc(C)[nH]c(=O)n3)ccc21 | > 100 µM (inactive) | – | 0.47 µM (active) | > 100 µM (inactive) | – | > 100 µM (inactive) | 0.33 µM (active) | > 100 µM (inactive) | > 100 µM (inactive) | > 100 µM (inactive) | > 100 µM (inactive) | – | > 100 µM (inactive) | > 100 µM (inactive) | > 100 µM (inactive) | > 100 µM (inactive) | 0.394 µM (active) | 0.0199 µM (active) | > 100 µM (inactive) | –
4 | N=C1C=C(N)C(=O)c2[nH]c(=O)ccc21 | 0.351 µM (active) | 1.8 µM (inactive) | 1.91 µM (inactive) | 2.04 µM (inactive) | – | 1.1 µM (active) | 1.09 µM (active) | 14.8 µM (inactive) | 2.11 µM (inactive) | 19.3 µM (inactive) | 5.07 µM (inactive) | 2.53 µM (inactive) | 2.04 µM (inactive) | 1.91 µM (inactive) | 1.76 µM (inactive) | 2.95 µM (inactive) | 1.01 µM (active) | 3.44 µM (inactive) | 12.4 µM (inactive) | 2.36 µM (inactive)
5 | c1ccc([P+](Cc2ccc(C[P+](c3ccccc3)(c3ccccc3)c3ccccc3)cc2)(c2ccccc2)c2ccccc2)cc1 | 51.4 µM (inactive) | 27.2 µM (inactive) | 9.66 µM (inactive) | > 100 µM (inactive) | – | 12.4 µM (inactive) | 42.7 µM (inactive) | 58.2 µM (inactive) | 26.3 µM (inactive) | 91 µM (inactive) | 37.1 µM (inactive) | > 100 µM (inactive) | 21.2 µM (inactive) | 47.5 µM (inactive) | 67.5 µM (inactive) | > 100 µM (inactive) | 31 µM (inactive) | > 100 µM (inactive) | 81.7 µM (inactive) | 71 µM (inactive)
6 | C=CCCCC(C#N)(c1ccccc1)N1CCCC1 (configuration not stated) | – | > 100 µM (inactive) | > 100 µM (inactive) | > 100 µM (inactive) | – | > 100 µM (inactive) | – | > 100 µM (inactive) | > 100 µM (inactive) | > 100 µM (inactive) | > 100 µM (inactive) | > 100 µM (inactive) | > 100 µM (inactive) | > 100 µM (inactive) | > 100 µM (inactive) | > 100 µM (inactive) | – | > 100 µM (inactive) | > 100 µM (inactive) | > 100 µM (inactive)
7 | S=C(S)NCNC(=S)S | > 100 µM (inactive) | > 100 µM (inactive) | > 100 µM (inactive) | > 100 µM (inactive) | – | > 100 µM (inactive) | > 100 µM (inactive) | > 100 µM (inactive) | > 100 µM (inactive) | > 100 µM (inactive) | > 100 µM (inactive) | – | > 100 µM (inactive) | > 100 µM (inactive) | > 100 µM (inactive) | 89.7 µM (inactive) | > 100 µM (inactive) | – | > 100 µM (inactive) | > 100 µM (inactive)
8 | CCC(CO)COC(=O)/C=C/C(=O)OCC(CC)CO (configuration not stated) | – | > 100 µM (inactive) | 48.6 µM (inactive) | > 84.3 µM (inactive) | – | > 74.3 µM (inactive) | – | > 71.8 µM (inactive) | > 81.8 µM (inactive) | > 100 µM (inactive) | > 100 µM (inactive) | > 100 µM (inactive) | > 100 µM (inactive) | > 100 µM (inactive) | > 100 µM (inactive) | > 100 µM (inactive) | – | 30.9 µM (inactive) | > 100 µM (inactive) | 27.4 µM (inactive)
9 | Cc1cccc(C)c1NC(=O)CCCC(=O)C(C#N)c1ccc(Cl)cc1 (configuration not stated) | – | > 100 µM (inactive) | > 100 µM (inactive) | > 100 µM (inactive) | – | > 100 µM (inactive) | – | > 100 µM (inactive) | > 100 µM (inactive) | > 100 µM (inactive) | > 100 µM (inactive) | > 100 µM (inactive) | > 100 µM (inactive) | > 100 µM (inactive) | > 100 µM (inactive) | > 100 µM (inactive) | – | > 100 µM (inactive) | > 100 µM (inactive) | > 100 µM (inactive)
10 | COc1c(OC2OC(CO)C(O)C(O)C2O)cc2c(c1OC)-c1ccc(OC)c(=O)cc1C(NC(C)=O)CC2 (configuration not stated) | – | 35.4 µM (inactive) | > 97.3 µM (inactive) | > 100 µM (inactive) | – | > 100 µM (inactive) | – | > 100 µM (inactive) | 44.6 µM (inactive) | > 100 µM (inactive) | > 100 µM (inactive) | > 100 µM (inactive) | > 100 µM (inactive) | > 100 µM (inactive) | > 100 µM (inactive) | > 100 µM (inactive) | – | > 100 µM (inactive) | > 100 µM (inactive) | > 100 µM (inactive)
11 | Cc1ccc(NC(=O)C2C3CCC(O3)C2C(=O)O)cc1 (configuration not stated) | – | > 75 µM (inactive) | > 48.2 µM (inactive) | > 53.2 µM (inactive) | – | > 39 µM (inactive) | – | > 49.4 µM (inactive) | 36.1 µM (inactive) | 99.1 µM (inactive) | > 100 µM (inactive) | 56.5 µM (inactive) | 43.1 µM (inactive) | > 40.6 µM (inactive) | > 48.8 µM (inactive) | > 45.1 µM (inactive) | – | 15.7 µM (inactive) | > 100 µM (inactive) | > 44.8 µM (inactive)
12 | COc1nc(OC)nc(Sc2ccc(Sc3ccc(Sc4nc(OC)nc(OC)n4)cc3)cc2)n1 | – | > 100 µM (inactive) | > 100 µM (inactive) | > 100 µM (inactive) | – | > 100 µM (inactive) | – | > 100 µM (inactive) | > 100 µM (inactive) | > 100 µM (inactive) | > 100 µM (inactive) | > 100 µM (inactive) | > 100 µM (inactive) | > 100 µM (inactive) | > 100 µM (inactive) | > 100 µM (inactive) | – | 7.52 µM (inactive) | > 100 µM (inactive) | > 100 µM (inactive)
